Data from patent US6617450B1, “P-glycoproteins and uses thereof” (Becton Dickinson and Company, priority 1999, dated 2003).

Tested on: cynomologous monkey PGP
Assay: Polarization of vinblastine transport across cynomologous monkey PGP transfected LLC-PK1 cell monolayers in Transwells
Type: cell-based, cynomologous monkey (Macaca fascicularis)
Settings: PGP transfected cells, relative to control cells; vinblastine (0.1 μM) transport in Transwells
Text: Cynomologous monkey PGP cDNA (SEQ ID NO:3) is introduced into a clonal population of LLC-PK 1 cells in a vector that confers resistance to hygromycin B. LLC-PK1 cells are obtained from the American Type Culture Collections and are propagated in Medium 199 supplemented to 7% with fetal bovine serum. LLC-PK1 cells are recloned prior to transfection in order to assure homogeneity of the cell population. Briefly, cynomologous monkey PGP cDNA is incorporated into the p222CMV vector. […] The PGP cDNA is under the control of the cytomegalovirus (CMV) immediate early promoter. […] Expression of PGP is measured by the polarization of vinblastine (0.1 μM) transport in Transwells™.
LLC-PK1 cell based transport studies are conducted in 24 well Transwells™(Corning Costar, Catalog number 3415). […] Transport is measured under sink conditions in both the apical to basolateral (A to B) and basolateral to apical (B to A) directions. […] Quantitation of the amount of compound transported is by liquid scintillation counting (vinblastine) or HPLC with UV or mass spectrometric detection.
Functional expression of cynomologous monkey PGP is measured by the polarization of transport of vinblastine.

Compound: CC[C@]1(O)C[C@@H]2CN(CCc3c([nH]c4ccccc34)[C@@](C(=O)OC)(c3cc4c(cc3OC)N(C)[C@H]3[C@@](O)(C(=O)OC)[C@H](OC(C)=O)[C@]5(CC)C=CCN6CC[C@]43[C@@H]65)C2)C1 [vinblastine]
- B to A/A to B ratio: much higher ratio
